Reference: PubChem BioAssay (NCI)
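Method: 48-hour compound exposure of cells in 96-well plates, five concentrations, linear interpolation of endpoints. Here, GI50 denotes the concentration required for 50% inhibition of growth. Definition used: TGI = concentration required for complete inhibition of growth.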

Columns and labels:
Assay in all cases: NCI tumour cell line growth inhibition, 48 h
OVCAR-5 ovarian = system: OVCAR-5 ovarian
ACHN renal = system: ACHN renal
786-0 renal = system: 786-0 renal
HL-60(TB) leukemia = system: HL-60(TB) leukemia
NCI-H522 lung = system: NCI-H522 lung
BT-549 breast = system: BT-549 breast
EKVX NSCLC = system: EKVX NSCLC
HT29 colon = system: HT29 colon
SW-620 colon = system: SW-620 colon
HS 578T breast = system: HS 578T breast
HCC-2998 colon = system: HCC-2998 colon
TK-10 renal = system: TK-10 renal
IGROV1 ovarian = system: IGROV1 ovarian
HCT-15 colon = system: HCT-15 colon
NCI-H23 lung = system: NCI-H23 lung
MCF7 breast = system: MCF7 breast
SK-MEL-28 melanoma = system: SK-MEL-28 melanoma
A549 NSCLC = system: A549 NSCLC
MALME-3M melanoma = system: MALME-3M melanoma
M14 melanoma = system: M14 melanoma
MDA-MB-435 = system: MDA-MB-435
SNB-75 CNS = system: SNB-75 CNS
CCRF-CEM leukemia = system: CCRF-CEM leukemia
HOP-92 NSCLC = system: HOP-92 NSCLC
OVCAR-4 ovarian = system: OVCAR-4 ovarian
SF-539 CNS = system: SF-539 CNS
SK-MEL-5 melanoma = system: SK-MEL-5 melanoma
SR leukemia = system: SR leukemia
SNB-19 CNS = system: SNB-19 CNS
U251 CNS = system: U251 CNS
RPMI-8226 leukemia = system: RPMI-8226 leukemia
PC-3 prostate = system: PC-3 prostate
MOLT-4 leukemia = system: MOLT-4 leukemia
SK-OV-3 ovarian = system: SK-OV-3 ovarian
KM12 colon = system: KM12 colon
SN12C renal = system: SN12C renal
UACC-257 melanoma = system: UACC-257 melanoma
HOP-62 NSCLC = system: HOP-62 NSCLC
UACC-62 melanoma = system: UACC-62 melanoma
OVCAR-8 ovarian = system: OVCAR-8 ovarian
MDA-MB-231 breast = system: MDA-MB-231 breast
COLO 205 colon = system: COLO 205 colon
NCI/ADR-RES ovarian = system: NCI/ADR-RES ovarian
NCI-H226 lung = system: NCI-H226 lung
SK-MEL-2 melanoma = system: SK-MEL-2 melanoma
DU-145 prostate = system: DU-145 prostate
NCI-H460 lung = system: NCI-H460 lung
OVCAR-3 ovarian = system: OVCAR-3 ovarian
HCT-116 colon = system: HCT-116 colon
UO-31 renal = system: UO-31 renal
SF-295 CNS = system: SF-295 CNS
K-562 leukemia = system: K-562 leukemia
CAKI-1 renal = system: CAKI-1 renal
RXF 393 renal = system: RXF 393 renal
SF-268 CNS = system: SF-268 CNS
LOX IMVI melanoma = system: LOX IMVI melanoma
T-47D breast = system: T-47D breast
A498 renal = system: A498 renal

CC(=O)Nc1ccc2[nH]c(-c3cccc(Cl)c3)cc(=O)c2c1
TGI (OVCAR-5 ovarian): > 100 µM
TGI (ACHN renal): > 100 µM
TGI (786-0 renal): > 100 µM
TGI (HL-60(TB) leukemia): > 100 µM
TGI (NCI-H522 lung): > 100 µM
TGI (BT-549 breast): > 100 µM
TGI (EKVX NSCLC): > 100 µM
TGI (HT29 colon): 33.7 µM
TGI (SW-620 colon): > 100 µM
TGI (HS 578T breast): > 100 µM
TGI (HCC-2998 colon): 63.5 µM
TGI (TK-10 renal): > 100 µM
TGI (IGROV1 ovarian): > 100 µM
TGI (HCT-15 colon): > 100 µM
TGI (NCI-H23 lung): > 100 µM
TGI (MCF7 breast): > 100 µM
TGI (SK-MEL-28 melanoma): > 100 µM
TGI (A549 NSCLC): > 100 µM
TGI (MALME-3M melanoma): > 100 µM
TGI (M14 melanoma): > 100 µM
TGI (MDA-MB-435): 6.93 µM
TGI (SNB-75 CNS): > 100 µM
TGI (CCRF-CEM leukemia): > 100 µM
TGI (HOP-92 NSCLC): > 100 µM
GI50 (OVCAR-4 ovarian): > 100 µM
TGI (OVCAR-4 ovarian): > 100 µM
TGI (SF-539 CNS): 30 µM
TGI (SK-MEL-5 melanoma): > 100 µM
TGI (SR leukemia): > 100 µM
TGI (SNB-19 CNS): > 100 µM
TGI (U251 CNS): 23.8 µM
TGI (RPMI-8226 leukemia): > 100 µM
TGI (PC-3 prostate): > 100 µM
TGI (MOLT-4 leukemia): > 100 µM
TGI (SK-OV-3 ovarian): 68.5 µM
TGI (KM12 colon): > 100 µM
TGI (SN12C renal): > 100 µM
TGI (UACC-257 melanoma): > 100 µM
TGI (HOP-62 NSCLC): > 100 µM
TGI (UACC-62 melanoma): 84.4 µM
TGI (OVCAR-8 ovarian): > 100 µM
TGI (MDA-MB-231 breast): > 100 µM
TGI (COLO 205 colon): 39.9 µM
TGI (NCI/ADR-RES ovarian): > 100 µM

CC(C)=NNC=N/C(C#N)=C(\N)C#N
TGI (NCI-H226 lung): > 100 µM
TGI (SK-MEL-2 melanoma): > 100 µM
TGI (OVCAR-5 ovarian): > 100 µM
TGI (DU-145 prostate): > 100 µM
TGI (ACHN renal): > 100 µM
TGI (786-0 renal): > 100 µM
TGI (HL-60(TB) leukemia): > 100 µM
TGI (NCI-H522 lung): > 100 µM
TGI (BT-549 breast): > 100 µM
TGI (EKVX NSCLC): > 100 µM
TGI (NCI-H460 lung): > 100 µM
TGI (HT29 colon): > 100 µM
TGI (OVCAR-3 ovarian): > 100 µM
TGI (SW-620 colon): > 100 µM
TGI (HCC-2998 colon): 1.21 µM
TGI (TK-10 renal): > 100 µM
TGI (IGROV1 ovarian): > 100 µM
TGI (HCT-15 colon): > 100 µM
TGI (NCI-H23 lung): > 100 µM
TGI (MCF7 breast): > 100 µM
TGI (SK-MEL-28 melanoma): > 100 µM
TGI (A549 NSCLC): > 100 µM
TGI (MALME-3M melanoma): > 100 µM
TGI (M14 melanoma): > 100 µM
TGI (SNB-75 CNS): > 100 µM
TGI (CCRF-CEM leukemia): > 100 µM
TGI (HCT-116 colon): > 100 µM
TGI (OVCAR-4 ovarian): > 100 µM
TGI (SF-539 CNS): > 100 µM
TGI (UO-31 renal): > 100 µM
TGI (SF-295 CNS): > 100 µM
TGI (SK-MEL-5 melanoma): > 100 µM
TGI (SR leukemia): > 100 µM
TGI (SNB-19 CNS): > 100 µM
TGI (U251 CNS): > 100 µM
TGI (RPMI-8226 leukemia): > 100 µM
TGI (PC-3 prostate): > 100 µM
TGI (MOLT-4 leukemia): > 100 µM
TGI (K-562 leukemia): > 100 µM
TGI (SK-OV-3 ovarian): > 100 µM
TGI (CAKI-1 renal): > 100 µM
TGI (UACC-257 melanoma): > 100 µM
TGI (HOP-62 NSCLC): > 100 µM
TGI (UACC-62 melanoma): > 100 µM
TGI (OVCAR-8 ovarian): > 100 µM
TGI (COLO 205 colon): > 100 µM
TGI (RXF 393 renal): > 100 µM
TGI (NCI/ADR-RES ovarian): > 100 µM
TGI (SF-268 CNS): > 100 µM

CCN1C(=O)N(CC)C2Nn3c(s/c(=C\c4ccccc4Br)c3=O)=NC21 (stereo not drawn)
GI50 (NCI-H226 lung): 6.31 µM
TGI (NCI-H226 lung): > 100 µM
GI50 (SK-MEL-2 melanoma): 3.55 µM
TGI (SK-MEL-2 melanoma): 25.6 µM
GI50 (LOX IMVI melanoma): 2.43 µM
TGI (LOX IMVI melanoma): 30.6 µM
GI50 (OVCAR-5 ovarian): 2.01 µM
TGI (OVCAR-5 ovarian): > 100 µM
GI50 (ACHN renal): 1.33 µM
TGI (ACHN renal): > 100 µM
GI50 (786-0 renal): 3.18 µM
TGI (786-0 renal): > 100 µM
GI50 (HL-60(TB) leukemia): 1.28 µM
TGI (HL-60(TB) leukemia): 3.19 µM
GI50 (NCI-H522 lung): 1.26 µM
TGI (NCI-H522 lung): 4.15 µM
GI50 (BT-549 breast): 3.2 µM
TGI (BT-549 breast): 17.4 µM
GI50 (EKVX NSCLC): 2.3 µM
TGI (EKVX NSCLC): > 100 µM
GI50 (NCI-H460 lung): 0.804 µM
TGI (NCI-H460 lung): 10.5 µM
GI50 (HT29 colon): 0.558 µM
TGI (HT29 colon): 5.73 µM
GI50 (OVCAR-3 ovarian): 1.05 µM
TGI (OVCAR-3 ovarian): 5.02 µM
GI50 (SW-620 colon): 1.27 µM
TGI (SW-620 colon): > 100 µM
GI50 (HCC-2998 colon): 2.4 µM
GI50 (TK-10 renal): 9.34 µM
TGI (TK-10 renal): > 100 µM
GI50 (IGROV1 ovarian): 2.77 µM
TGI (IGROV1 ovarian): > 100 µM
GI50 (T-47D breast): 13.2 µM
TGI (T-47D breast): > 100 µM
GI50 (HCT-15 colon): 1.48 µM
TGI (HCT-15 colon): > 100 µM
GI50 (NCI-H23 lung): 2.7 µM
TGI (NCI-H23 lung): > 100 µM
GI50 (MCF7 breast): 1.78 µM
TGI (MCF7 breast): > 100 µM
GI50 (SK-MEL-28 melanoma): 2.23 µM
TGI (SK-MEL-28 melanoma): 69.6 µM
GI50 (A549 NSCLC): 1.23 µM
TGI (A549 NSCLC): > 100 µM
GI50 (MALME-3M melanoma): 8.08 µM
TGI (MALME-3M melanoma): 78.1 µM
GI50 (SNB-75 CNS): 0.797 µM
TGI (SNB-75 CNS): 8.3 µM
GI50 (CCRF-CEM leukemia): 1.32 µM
TGI (CCRF-CEM leukemia): > 100 µM
GI50 (HOP-92 NSCLC): 4.14 µM
TGI (HOP-92 NSCLC): 80.8 µM
GI50 (HCT-116 colon): 0.497 µM
TGI (HCT-116 colon): > 100 µM
GI50 (OVCAR-4 ovarian): 2.29 µM
TGI (OVCAR-4 ovarian): > 100 µM
GI50 (SF-539 CNS): 0.889 µM
TGI (SF-539 CNS): 3.08 µM
GI50 (UO-31 renal): 2 µM
TGI (UO-31 renal): > 100 µM
GI50 (SF-295 CNS): 0.691 µM
TGI (SF-295 CNS): 7.75 µM
GI50 (SK-MEL-5 melanoma): 1.71 µM
TGI (SK-MEL-5 melanoma): 5.64 µM
GI50 (SR leukemia): 0.573 µM
TGI (SR leukemia): 8.3 µM
GI50 (A498 renal): 0.886 µM
TGI (A498 renal): 4.08 µM
GI50 (SNB-19 CNS): 3.18 µM
TGI (SNB-19 CNS): > 100 µM
GI50 (U251 CNS): 0.676 µM
TGI (U251 CNS): 19.4 µM
GI50 (RPMI-8226 leukemia): 1.79 µM
TGI (RPMI-8226 leukemia): 15.2 µM
GI50 (PC-3 prostate): 1.86 µM
TGI (PC-3 prostate): > 100 µM
GI50 (MOLT-4 leukemia): 2.28 µM
TGI (MOLT-4 leukemia): 23.2 µM
GI50 (K-562 leukemia): 0.515 µM
TGI (K-562 leukemia): > 100 µM
GI50 (SK-OV-3 ovarian): 2.15 µM
TGI (SK-OV-3 ovarian): 7.7 µM
GI50 (CAKI-1 renal): 1.75 µM
TGI (CAKI-1 renal): 38.2 µM
GI50 (KM12 colon): 0.501 µM
TGI (KM12 colon): 6.13 µM
GI50 (SN12C renal): 3.17 µM
TGI (SN12C renal): 27.8 µM
GI50 (UACC-257 melanoma): 12.9 µM
TGI (UACC-257 melanoma): > 100 µM
GI50 (HOP-62 NSCLC): 2.81 µM
TGI (HOP-62 NSCLC): > 100 µM
GI50 (UACC-62 melanoma): 2.18 µM
TGI (UACC-62 melanoma): 31.1 µM
GI50 (OVCAR-8 ovarian): 1.61 µM
TGI (OVCAR-8 ovarian): 7.85 µM
GI50 (MDA-MB-231 breast): 1.89 µM
TGI (MDA-MB-231 breast): 8.62 µM
GI50 (RXF 393 renal): 1.09 µM
TGI (RXF 393 renal): 6.91 µM
GI50 (NCI/ADR-RES ovarian): 1.74 µM
TGI (NCI/ADR-RES ovarian): 43.7 µM
GI50 (SF-268 CNS): 2.54 µM
TGI (SF-268 CNS): 29 µM
